Data taken from ChEMBL document CHEMBL1201862, “PubChem BioAssay data set” (2004).
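Results reflect a 48-hour exposure of cells in 96-well plates to compound at five concentrations. GI50: concentration for 50% inhibition of growth.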 The source made the active and inactive calls. Rule as the data show it: active = GI50 up to about 1.1 µM and inactive = higher.

Tests used:
Test in all cases: NCI anticancer screen, dose series, 48 h
COLO 205 = test system: COLO 205
HCT-116 = test system: HCT-116
HT-29 = test system: HT-29
NCI-H226 = test system: NCI-H226
NCI-H460 = test system: NCI-H460
OVCAR-4 = test system: OVCAR-4
RXF 393 = test system: RXF 393
SK-MEL-28 = test system: SK-MEL-28
SK-MEL-2 = test system: SK-MEL-2
SK-MEL-5 = test system: SK-MEL-5
TK-10 = test system: TK-10
U-251 = test system: U-251
A498 = test system: A498
K562 = test system: K562
UACC-62 = test system: UACC-62

COc1ccccc1NC(=O)NS(=O)(=O)c1ccccc1
GI50 (COLO 205): > 100 µM (inactive)
GI50 (HCT-116): > 100 µM (inactive)
GI50 (HT-29): > 100 µM (inactive)
GI50 (NCI-H226): 87.1 µM (inactive)
GI50 (NCI-H460): > 100 µM (inactive)
GI50 (OVCAR-4): > 100 µM (inactive)
GI50 (RXF 393): 28.9 µM (inactive)
GI50 (SK-MEL-28): > 100 µM (inactive)
GI50 (SK-MEL-2): > 100 µM (inactive)
GI50 (SK-MEL-5): > 100 µM (inactive)
GI50 (TK-10): > 100 µM (inactive)
GI50 (U-251): > 100 µM (inactive)

CC(C)N(C(=O)C12C3C4C1C1C2C3C41C(=O)C(C)(C)C)C(C)C (stereo not given)
GI50 (A498): > 100 µM (inactive)
GI50 (COLO 205): > 100 µM (inactive)
GI50 (HCT-116): 92.9 µM (inactive)
GI50 (HT-29): 76.7 µM (inactive)
GI50 (K562): 20.8 µM (inactive)
GI50 (OVCAR-4): > 100 µM (inactive)
GI50 (SK-MEL-28): > 100 µM (inactive)
GI50 (SK-MEL-2): > 100 µM (inactive)
GI50 (SK-MEL-5): 38.8 µM (inactive)
GI50 (TK-10): > 100 µM (inactive)
GI50 (U-251): > 100 µM (inactive)
GI50 (UACC-62): > 100 µM (inactive)

CC1=C(C(=O)NCc2ccccc2)C(/C=C/c2ccccc2)C(C(=O)NCc2ccccc2)=C(C)N1
GI50 (A498): > 100 µM (inactive)
GI50 (HCT-116): > 100 µM (inactive)
GI50 (HT-29): > 100 µM (inactive)
GI50 (K562): > 100 µM (inactive)
GI50 (NCI-H226): > 100 µM (inactive)
GI50 (NCI-H460): > 100 µM (inactive)
GI50 (OVCAR-4): > 100 µM (inactive)
GI50 (RXF 393): > 100 µM (inactive)
GI50 (SK-MEL-28): > 100 µM (inactive)
GI50 (SK-MEL-2): > 100 µM (inactive)
GI50 (SK-MEL-5): > 100 µM (inactive)
GI50 (TK-10): > 100 µM (inactive)
GI50 (UACC-62): > 100 µM (inactive)

COc1c(I)c(OC)c2c(c1I)O[C@@H]1OCC[C@H]21
GI50 (A498): 28.4 µM (inactive)
GI50 (COLO 205): 20 µM (inactive)
GI50 (HCT-116): 35.6 µM (inactive)
GI50 (HT-29): 39.4 µM (inactive)
GI50 (K562): 41.2 µM (inactive)
GI50 (NCI-H226): 23.6 µM (inactive)
GI50 (NCI-H460): 20.2 µM (inactive)
GI50 (OVCAR-4): 23.6 µM (inactive)
GI50 (RXF 393): 37.4 µM (inactive)
GI50 (SK-MEL-28): 34.2 µM (inactive)
GI50 (SK-MEL-2): 19.9 µM (inactive)
GI50 (SK-MEL-5): 13.7 µM (inactive)
GI50 (TK-10): 40.6 µM (inactive)
GI50 (U-251): 37.6 µM (inactive)
GI50 (UACC-62): 32.5 µM (inactive)

O=[N+]([O-])c1ccc(N=P(c2ccccc2)(c2ccccc2)c2ccccc2)n2nnnc12
GI50 (A498): > 100 µM (inactive)
GI50 (COLO 205): 82 µM (inactive)
GI50 (HT-29): > 100 µM (inactive)
GI50 (K562): 67 µM (inactive)
GI50 (NCI-H460): 44.6 µM (inactive)
GI50 (OVCAR-4): 31.8 µM (inactive)
GI50 (RXF 393): 44 µM (inactive)
GI50 (SK-MEL-28): > 100 µM (inactive)
GI50 (SK-MEL-2): 33.7 µM (inactive)
GI50 (SK-MEL-5): 67 µM (inactive)
GI50 (TK-10): > 100 µM (inactive)
GI50 (U-251): 54.8 µM (inactive)
GI50 (UACC-62): 37.3 µM (inactive)

Cc1cccc(C)c1NC(=O)C(=O)Nn1c(NN)nc2ccccc2c1=O
GI50 (A498): > 100 µM (inactive)
GI50 (COLO 205): > 100 µM (inactive)
GI50 (HCT-116): > 100 µM (inactive)
GI50 (HT-29): > 100 µM (inactive)
GI50 (K562): > 100 µM (inactive)
GI50 (NCI-H226): > 100 µM (inactive)
GI50 (NCI-H460): > 100 µM (inactive)
GI50 (OVCAR-4): > 100 µM (inactive)
GI50 (RXF 393): > 100 µM (inactive)
GI50 (SK-MEL-28): > 100 µM (inactive)
GI50 (SK-MEL-2): > 100 µM (inactive)
GI50 (SK-MEL-5): > 100 µM (inactive)
GI50 (TK-10): > 100 µM (inactive)
GI50 (U-251): > 100 µM (inactive)
GI50 (UACC-62): > 100 µM (inactive)

CCCCOC(=O)NC(=O)c1cn(CCCOC(=O)CCCCCCCCC(=O)OCCCn2cc(C(=O)NC(=O)OCCCC)c(=O)[nH]c2=O)c(=O)[nH]c1=O
GI50 (COLO 205): > 100 µM (inactive)
GI50 (HCT-116): > 100 µM (inactive)
GI50 (HT-29): > 100 µM (inactive)
GI50 (K562): > 100 µM (inactive)
GI50 (NCI-H226): > 100 µM (inactive)
GI50 (NCI-H460): > 100 µM (inactive)
GI50 (OVCAR-4): > 100 µM (inactive)
GI50 (RXF 393): 83 µM (inactive)
GI50 (SK-MEL-28): > 100 µM (inactive)
GI50 (SK-MEL-2): > 100 µM (inactive)
GI50 (SK-MEL-5): > 100 µM (inactive)
GI50 (TK-10): > 100 µM (inactive)
GI50 (U-251): > 100 µM (inactive)
GI50 (UACC-62): > 100 µM (inactive)

N#Cc1nc(Nc2ccc([N+](=O)[O-])cc2)sc1N
GI50 (A498): 26.2 µM (inactive)
GI50 (COLO 205): 14 µM (inactive)
GI50 (HCT-116): 11.3 µM (inactive)
GI50 (HT-29): 33.5 µM (inactive)
GI50 (K562): 8.75 µM (inactive)
GI50 (NCI-H226): 27.4 µM (inactive)
GI50 (NCI-H460): 28.8 µM (inactive)
GI50 (OVCAR-4): 33.8 µM (inactive)
GI50 (SK-MEL-28): 22.9 µM (inactive)
GI50 (SK-MEL-2): 21.6 µM (inactive)
GI50 (SK-MEL-5): 3.79 µM (inactive)
GI50 (TK-10): 22.9 µM (inactive)
GI50 (U-251): 9.68 µM (inactive)
GI50 (UACC-62): 15.8 µM (inactive)

O=C1C2C3C=C4c5ccccc5N(c5ccccc5)C4([C@@H]2C(=O)N1c1ccc(F)cc1)[C@H]1C(=O)N(c2ccc(F)cc2)C(=O)[C@@H]31 (stereo not given in full)
GI50 (COLO 205): > 100 µM (inactive)
GI50 (K562): > 100 µM (inactive)
GI50 (NCI-H226): > 100 µM (inactive)
GI50 (RXF 393): 81.3 µM (inactive)
GI50 (SK-MEL-28): > 100 µM (inactive)
GI50 (SK-MEL-2): > 100 µM (inactive)
GI50 (TK-10): > 100 µM (inactive)
GI50 (U-251): > 100 µM (inactive)

C=C1CC2OC(=O)C(=C)C2C(O)C2C(=C)CCC12 (stereo not given)
GI50 (A498): 0.31 µM (active)
GI50 (COLO 205): 3.78 µM (inactive)
GI50 (HCT-116): 3.62 µM (inactive)
GI50 (HT-29): 3.78 µM (inactive)
GI50 (K562): 3.47 µM (inactive)
GI50 (NCI-H226): 20.4 µM (inactive)
GI50 (NCI-H460): 14.7 µM (inactive)
GI50 (RXF 393): 4.05 µM (inactive)
GI50 (SK-MEL-28): 7.28 µM (inactive)
GI50 (SK-MEL-2): 15.7 µM (inactive)
GI50 (SK-MEL-5): 12.2 µM (inactive)
GI50 (TK-10): 14.8 µM (inactive)
GI50 (U-251): 16.8 µM (inactive)
GI50 (UACC-62): 3.48 µM (inactive)
